Columns and labels:
HCT-116 cells = assay: Apoptosis by FACS in HCT-116 cells stably transfected with vector, sense or antisense NAG-1; format: cell-based, human; conditions: 100 μM, 48 hr
Text: HCT-116 cells were stably transfected with an expression vector containing the full-length NAG-1 coding region in the sense and antisense orientations. The sense cells expressed NAG-1 protein at a level that was 2.0–2.5 fold greater than the vector transfected cells, while the anti-sense cells expressed slightly lower NAG-1 levels compared to vector transfected cells. […] The full-length NAG-1 (sense strand and antisense strand) was cloned into the pCDNA3.1 expression vector and transfected into HCT-116 cells. Each cell was grown under G418 (500 μg/ml) for 2 weeks and treated with either vehicle or INDO (100 μM). After growing for 48 hr, the media was harvested, concentrated, and subjected to Western analysis. Thirty μg of total protein was loaded in each lane, and the arrow indicates the NAG-1 protein band.
Despite repeated attempts, construction of NAG-1 highly expressing cells which may be linked to high rates of apoptosis were not generated (data not shown). […] This could be due to effects on cell proliferation and/or an increase in cell death. […] The stably transfected cells were then incubated with 100 μM indomethacin for 48 hr and the percentage of cells in apoptosis determined by FACS analysis as described in Example 1. The data shown in FIG. 6 represent mean±S.D. Indomethacin enhanced the percentage of apoptotic cells by approximately 2 fold in the vector-HCT-116 and sense cells.

NAG-1 = assay: Northern blot analysis of NAG-1 mRNA expression in HCT-116 cells; format: cell-based, human
Description: Upon reaching 60–80% confluence in 10 cm plates, the cells were treated at indicated concentrations and times with either different NSAIDs or PPARγ ligands in the absence of serum. Total RNAs were isolated using TRIzol reagent (Life Technologies) according to the manufacturer's protocol. For Northern blot analysis, […] of total RNA was denatured at 55° C. for 15 min and separated in a 1.2% agarose gel containing 2.2 M formaldehyde, and transferred to Hybond-N membrane ([…]). After fixing the membrane by UV, blots were prehybridized in hybridization solution (Rapid-hyb buffer, […]) for 1 hr at 65° C. followed by hybridization with cDNA labeled with [α-^32P]dCTP by random primer extension (DECAprimeII kit, Ambion). The probes used were either full-length NAG-1 fragment or PTGFB clone (generously provided by Dr. Bento-Soar of the University of Iowa). After 4 hr incubation at 65° C., the blots were washed once with 2×SSC/0.1% SDS at RT and twice with 0.1×SSC/0.1% SDS at 65° C. Messenger RNA abundance Was estimated by intensities of the hybridization bands of autoradiographs using Scion Image (Scion). Equivalent loading of RNA samples was confirmed by hybridizing the same blot with a ^32P-labeled b-actin probe which recognizes RNA of approximately 2 kb.
To determine whether other NSAIDs increased apoptosis and NAG-1 expression, tests were conducted to determine whether variants of NSAIDs induced NAG-1 gene expression and NSAID-induced apoptosis. Aspirin, ibuprofen, indomethacin, and sulindac sulfide were selected since they are known COX inhibitors. […] HCT-116 cells were treated with different NSAIDs (vehicle, 0.2% DMSO; aspirin, 10 mM; ibuprofen, 1 mM; sodium salicylate, 5 mM; sulindac sulfide, 50 μM; sulindac, 40 μM; acetaminophen, 100 μM) for 24 hr in the absence of serum. Northern analysis was performed using NAG-1 and β-actin as probes. Total RNAs were isolated from NSAID-treated HCT-116 cells after 24 hr treatment and Northern blot was performed using NAG-1 cDNA as a probe (data not shown). […] Each of the doses were as follows: aspirin (1, 5, 10 mM); ibuprofen (100, 500, 1000 μM); salicylate (1, 2.5, 5 mM); sulindac sulfide (1, 10, 50 μM); sulindac (10, 20, 40 μM); acetaminophen (10, 50, 100 μM). After 48 hr treatment with NSAIDs in the presence of serum, cells were harvested and assayed as described in FIG. 1C. Apoptosis detected by PI staining was measured by FACS, as known in the art (FIG. 2A; HCT-116 cells were treated with different NSAIDs (vehicle, 0.2% DMSO; Aspirin, 10 mM; Ibuprofen, 1 mM; Sodium Salicylate, 5 mM; Sulindac Sulfide, 50 μM; Sulindac, 40 μM; Acetaminophen, 100 μM) for 24 hr in the absence of serum. Northern analysis was performed using NAG-1 and β-actin as probes. The open bars represent the relative expression of NAG-1 mRNA over the control (vehicle). The hatched bars represent the relative apoptosis ratio over vehicle treatment by PI staining methods. N=3±S.D.).
In the Table below, HCT-116 cells were treated with different NSAIDs (vehicle, 0.2% DMSO) for 24 hr in the absence of serum. Northern analysis was performed using NAG-1 and β-actin as probes. The data represent relative expression of NAG-1 mRNA over the control (1.0). Each NSAID was tested at 3 different concentrations and maximally effective concentration used for apoptosis determination. Apoptosis ratio by PI staining was measured by FACS. After 48 hr treatment with NSAIDs in the presence of serum, cells were harvested and assayed. The data represent relative apoptosis ratio over vehicle treatment by PI staining methods. TACS™ Annexin V-FITC kit was also used to confirm apoptosis.

COc1ccc2c(c1)c(CC(=O)O)c(C)n2C(=O)c1ccc(Cl)cc1 [Indomethacin]
Stimulation of apoptosis (HCT-116 cells; antisense HCT-116 cells): did not stimulate apoptosis
Enhancement of percentage of apoptotic cells (HCT-116 cells; sense NAG-1 HCT-116 cells): approximately 2 fold
Enhancement of percentage of apoptotic cells (HCT-116 cells; vector-HCT-116 cells): approximately 2 fold
NAG-1 mRNA expression (NAG-1; HCT-116, 100 μM INDO, 24 hr, no serum): significant increase
NAG-1 Induction (mRNA) Fold (NAG-1; HCT-116, 24 hr in absence of serum, relative NAG-1 mRNA over vehicle control (1.0), tested over the concentration range listed): 2.2 Fold
